The source made the active and inactive calls. No cut-off for these calls is given here.
Legend:
[1] = tested on: Vibrio harveyi; assay: Growth inhibition of Vibrio harveyi assessed as time required to double bacterial growth relative to control; type: functional, organism-based
[2] = molecular target: Autoinducer 2-binding periplasmic protein LuxP (Vibrio harveyi, UniProt P54300); assay: Antagonist activity at LuxP receptor in Vibrio harveyi MM32 assessed as inhibition of autoinducer-2-mediated quorum sensing after 3 to 4 hrs; type: functional
[3] = tested on: Vibrio harveyi; assay: Growth inhibition of Vibrio harveyi assessed as time required to double bacterial growth at 20 uM; type: functional

Autoinducer 2-binding periplasmic protein LuxP, sequence (P54300 whole entry): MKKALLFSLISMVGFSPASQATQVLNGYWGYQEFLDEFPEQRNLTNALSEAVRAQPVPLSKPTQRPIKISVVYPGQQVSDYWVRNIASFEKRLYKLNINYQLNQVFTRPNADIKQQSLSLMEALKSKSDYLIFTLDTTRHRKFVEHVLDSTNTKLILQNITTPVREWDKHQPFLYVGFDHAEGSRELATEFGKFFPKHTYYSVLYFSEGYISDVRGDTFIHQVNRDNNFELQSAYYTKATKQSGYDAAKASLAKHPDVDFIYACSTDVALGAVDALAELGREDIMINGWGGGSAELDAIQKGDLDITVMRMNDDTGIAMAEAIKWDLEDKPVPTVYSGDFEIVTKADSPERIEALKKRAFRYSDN

Row | SMILES | Activity [1] | IC50 [2] [µM] | Time [3] [min]
1 | O[C@@H]1CCC[C@@H]1O | inactive | – | –
2 | O=C(c1ccccc1)c1ccc(O)c(O)c1O | inactive | 4 | –
3 | O=Cc1cc(O)c(O)c(O)c1 | inactive | 12 | –
4 | O=C(O)c1cc(O)c(O)c(O)c1 [GALLIC ACID] | inactive | 50 | –
5 | Oc1cccc(O)c1O [PYROGALLOL] | – | 2 | 82
6 | O=C(O)c1ccc(O)c(O)c1O | inactive | 61 | –
7 | CC(=O)c1ccc(O)c(O)c1O [GALLACETOPHENONE] | inactive | 21 | –
8 | Oc1cccnc1O | inactive | – | –
9 | Oc1ccccc1O [CATECHOL] | inactive | 59 | –
10 | CCOC(=O)c1oc(C(=O)OCC)c(O)c1O | inactive | – | –
11 | N#CC(C#N)=Cc1cc(O)c(O)c(O)c1 | inactive | – | –
12 | O=Cc1ccc(O)c(O)c1O | inactive | 4 | –
13 | NCCc1cc(O)c(O)c(O)c1 | – | 22 | –
14 | O=c1ccc2ccc(O)c(O)c2o1 [DAPHNETIN] | inactive | 12 | –

— ChEMBL document CHEMBL1141519, “Pyrogallol and its analogs can antagonize bacterial quorum sensing in Vibrio harveyi” (Bioorg Med Chem Lett, 2008)
